Measured values: ChEMBL document CHEMBL1201862, “PubChem BioAssay data set” (2004)
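Growth conditions: 96-well plates. Treatment: test compound, 48 hours, 5 concentrations. Analysis: linear interpolation between bracketing concentrations; unreached endpoints set to highest concentration. Abbreviation: GI50, concentration required for 50% inhibition of growth.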 Calls of active or inactive are those of the source. No stated cut-off is given here; in the data, active = GI50 up to about 1.1 µM and inactive = higher.

What was measured:
Assay in all cases: DTP human tumour cell line panel, 48 h
MOLT-4 = system: MOLT-4
SF-268 = system: SF-268
HCC 2998 = system: HCC 2998
M14 = system: M14
HCT-15 = system: HCT-15
SR = system: SR
SK-MEL-2 = system: SK-MEL-2
LOX IMVI = system: LOX IMVI
HT-29 = system: HT-29
UO-31 = system: UO-31
ACHN = system: ACHN
HL-60 = system: HL-60
U-251 = system: U-251
TK-10 = system: TK-10
DLD-1 = system: DLD-1
PC-3 = system: PC-3
MCF7 = system: MCF7
NCI/ADR-RES = system: NCI/ADR-RES
BT-549 = system: BT-549
MDA-N = system: MDA-N

Row | Structure (SMILES) | GI50 (MOLT-4) | GI50 (SF-268) | GI50 (HCC 2998) | GI50 (M14) | GI50 (HCT-15) [µM] | GI50 (SR) | GI50 (SK-MEL-2) | GI50 (LOX IMVI) | GI50 (HT-29) | GI50 (UO-31) | GI50 (ACHN) | GI50 (HL-60) | GI50 (U-251) | GI50 (TK-10) | GI50 (DLD-1) | GI50 (PC-3) | GI50 (MCF7) | GI50 (NCI/ADR-RES) | GI50 (BT-549) | GI50 (MDA-N)
1 | CCCCSC(=CC(=O)c1cccc(C(=O)C=C(SCCCC)SCCCC)n1)SCCCC | > 100 µM (inactive) | > 100 µM (inactive) | > 100 µM (inactive) | > 100 µM (inactive) | > 100 | > 100 µM (inactive) | > 100 µM (inactive) | > 100 µM (inactive) | > 100 µM (inactive) | > 100 µM (inactive) | > 100 µM (inactive) | > 100 µM (inactive) | > 100 µM (inactive) | > 100 µM (inactive) | > 100 µM (inactive) |  |  |  |  | 
2 | O=C(CCCCCCCCCCc1ccccc1)C1=C(O)CCCC1=O | 30.3 µM (inactive) | 17.5 µM (inactive) | 35.9 µM (inactive) | 41.2 µM (inactive) |  | 23.8 µM (inactive) | 23 µM (inactive) | 26.2 µM (inactive) | 26.6 µM (inactive) | 22 µM (inactive) | 28.1 µM (inactive) | 14.3 µM (inactive) | 29.2 µM (inactive) | 42.2 µM (inactive) | 41.1 µM (inactive) |  |  |  |  | 
3 | CC1=NN(C(=O)c2ccc([N+](=O)[O-])cc2)C(=O)C1/N=N/c1ccccc1C(=O)O (centres undefined) | > 100 µM (inactive) | > 100 µM (inactive) | > 100 µM (inactive) |  |  | > 10 µM (inactive) | > 100 µM (inactive) |  | > 100 µM (inactive) | > 100 µM (inactive) | > 100 µM (inactive) | 90.2 µM (inactive) | 99.1 µM (inactive) | > 100 µM (inactive) | > 100 µM (inactive) |  |  |  |  | 
4 | Cc1cc(-c2ccccc2)nc(Nc2cc3ccccc3[nH]2)n1 | > 100 µM (inactive) | > 100 µM (inactive) | > 100 µM (inactive) | > 100 µM (inactive) | > 100 | > 100 µM (inactive) | > 100 µM (inactive) | > 100 µM (inactive) | > 100 µM (inactive) | > 100 µM (inactive) | > 100 µM (inactive) | > 100 µM (inactive) | > 100 µM (inactive) | > 100 µM (inactive) | > 100 µM (inactive) |  |  |  |  | 
5 | O=CN/C=C/c1ccccc1 | > 100 µM (inactive) | > 100 µM (inactive) | > 100 µM (inactive) | > 100 µM (inactive) | > 100 | > 94.8 µM (inactive) | > 100 µM (inactive) | > 100 µM (inactive) | > 100 µM (inactive) | > 87.3 µM (inactive) | > 100 µM (inactive) | > 100 µM (inactive) | > 100 µM (inactive) | > 100 µM (inactive) | > 100 µM (inactive) | > 100 µM (inactive) |  |  |  | 
6 | O=C(O/N=C1/CCC/C1=C\c1ccccc1)c1ccc(Cl)cc1 | > 100 µM (inactive) | > 77.4 µM (inactive) | > 100 µM (inactive) | > 100 µM (inactive) | > 100 | > 82.4 µM (inactive) | > 100 µM (inactive) | > 100 µM (inactive) | > 100 µM (inactive) | 58.9 µM (inactive) | 60.5 µM (inactive) | > 56.1 µM (inactive) | 46.6 µM (inactive) | 38.9 µM (inactive) | 23.9 µM (inactive) |  |  |  |  | 
7 | O=c1nc(-c2ccccc2)c2c3c(cccn13)CCC2 | > 100 µM (inactive) | > 100 µM (inactive) | > 100 µM (inactive) | > 100 µM (inactive) | > 100 | > 100 µM (inactive) | > 100 µM (inactive) | > 100 µM (inactive) | > 100 µM (inactive) | 73.6 µM (inactive) | > 100 µM (inactive) | > 100 µM (inactive) | > 100 µM (inactive) | > 100 µM (inactive) | > 100 µM (inactive) |  |  |  |  | 
8 | CCC(C)CN1C(=O)NC(C)(Cc2ccccc2)C1=O (centres undefined) |  | > 100 µM (inactive) | > 100 µM (inactive) | > 100 µM (inactive) |  | > 100 µM (inactive) | > 100 µM (inactive) | > 100 µM (inactive) | > 100 µM (inactive) | > 100 µM (inactive) | > 100 µM (inactive) | > 100 µM (inactive) | > 100 µM (inactive) | > 100 µM (inactive) | > 100 µM (inactive) |  |  |  |  | 
9 | COc1cc(C(C)O)c[n+](Cc2ccccc2)c1 (centres undefined) | > 100 µM (inactive) | > 100 µM (inactive) | > 100 µM (inactive) | > 100 µM (inactive) | > 100 | > 100 µM (inactive) | > 100 µM (inactive) | > 100 µM (inactive) | > 100 µM (inactive) | > 100 µM (inactive) | > 100 µM (inactive) | > 100 µM (inactive) | > 100 µM (inactive) | > 100 µM (inactive) | > 100 µM (inactive) |  |  |  |  | 
10 | Cc1cccc(C(C)(C)C)c1NC(=O)CC1C(=O)Nc2ccccc2[S+]1[O-] (centres undefined) | 20.3 µM (inactive) | > 100 µM (inactive) | 68.1 µM (inactive) | 43.6 µM (inactive) | 49.2 | 24.9 µM (inactive) | 49.3 µM (inactive) | 55.7 µM (inactive) | 65 µM (inactive) | 41.6 µM (inactive) | 31.4 µM (inactive) | 20.9 µM (inactive) | 58.9 µM (inactive) | 46.5 µM (inactive) | 44.9 µM (inactive) |  |  |  |  | 
11 | O=[N+]([O-])c1nccn1COCCO | 0.442 µM (active) | > 100 µM (inactive) | > 100 µM (inactive) | > 100 µM (inactive) | > 100 | > 100 µM (inactive) | > 100 µM (inactive) | > 100 µM (inactive) | > 100 µM (inactive) |  | > 100 µM (inactive) | > 100 µM (inactive) | > 100 µM (inactive) | > 100 µM (inactive) | > 100 µM (inactive) |  |  |  |  | 
12 | Oc1ncnc2c1nnn2CCCn1nnc2c(O)ncnc21 | > 100 µM (inactive) | > 100 µM (inactive) | > 100 µM (inactive) | > 100 µM (inactive) | > 100 | > 100 µM (inactive) | > 100 µM (inactive) | > 100 µM (inactive) | > 100 µM (inactive) | > 100 µM (inactive) | > 100 µM (inactive) | > 100 µM (inactive) | > 100 µM (inactive) | > 100 µM (inactive) | > 100 µM (inactive) |  |  |  |  | 
13 | N=C(c1ccccc1)N(O)C1CCCCC1 |  | > 100 µM (inactive) | > 100 µM (inactive) | > 100 µM (inactive) |  | > 100 µM (inactive) | > 100 µM (inactive) | > 100 µM (inactive) | > 100 µM (inactive) | > 100 µM (inactive) |  | > 100 µM (inactive) | > 100 µM (inactive) | > 100 µM (inactive) | > 100 µM (inactive) |  |  |  |  | 
14 | COc1ccc(Cc2cc3c(cc2OCC(=O)O)OCO3)cc1 | > 100 µM (inactive) | > 100 µM (inactive) | > 100 µM (inactive) | > 100 µM (inactive) |  | > 100 µM (inactive) | > 100 µM (inactive) | > 100 µM (inactive) | > 100 µM (inactive) | > 100 µM (inactive) | > 100 µM (inactive) | > 100 µM (inactive) |  | > 100 µM (inactive) | > 100 µM (inactive) |  |  |  |  | 
15 | O=C(CC1(O)C(=O)Nc2ccccc21)c1ccc(O)cc1 (centres undefined) | > 100 µM (inactive) | > 100 µM (inactive) | > 100 µM (inactive) | > 100 µM (inactive) | > 100 | > 100 µM (inactive) | > 100 µM (inactive) | > 100 µM (inactive) | > 100 µM (inactive) | > 100 µM (inactive) | > 100 µM (inactive) | > 100 µM (inactive) | > 100 µM (inactive) | > 100 µM (inactive) | > 100 µM (inactive) |  |  |  |  | 
16 | O=C1c2ccccc2C(=O)c2c1ccc1c3ccccc3n(-c3ccccc3)c21 | 2.3 µM (inactive) | 23 µM (inactive) | 46.6 µM (inactive) | 12.4 µM (inactive) | 16.1 | 5.89 µM (inactive) | 25.7 µM (inactive) | 14.5 µM (inactive) | 16.7 µM (inactive) | 21.3 µM (inactive) | 17.3 µM (inactive) | 2.03 µM (inactive) | 32.7 µM (inactive) | 40.8 µM (inactive) | 17.1 µM (inactive) | 28.1 µM (inactive) | 16 µM (inactive) | 39.7 µM (inactive) | 25.7 µM (inactive) | 25 µM (inactive)
17 | CN(O)C(=S)c1ccccc1 | 0.325 µM (active) | 6.43 µM (inactive) | 6.34 µM (inactive) | 3.98 µM (inactive) | 2.47 | 0.178 µM (active) | 5.07 µM (inactive) | 1.57 µM (inactive) | 0.312 µM (active) | 5.35 µM (inactive) | 4.42 µM (inactive) | 0.233 µM (active) | 3.18 µM (inactive) | > 78.2 µM (inactive) | 0.619 µM (active) | 3.23 µM (inactive) | 1.1 µM (active) | 0.746 µM (active) | > 100 µM (inactive) | 6.95 µM (inactive)
